Key:
MUP [1] = target: T1, MUP (Mus musculus, UniProt P11588); assay: Binding of small hydrophobic ligands to MUP (Kd)
T1 construct: made in house; host or cells: E. coli M15 cells with vector pqe30 MUP
T1 sequence (P11588 19-180): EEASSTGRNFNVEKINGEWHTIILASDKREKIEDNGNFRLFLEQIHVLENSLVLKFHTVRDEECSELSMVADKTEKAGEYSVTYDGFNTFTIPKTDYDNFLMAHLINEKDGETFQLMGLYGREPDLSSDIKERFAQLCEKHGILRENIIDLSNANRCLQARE

Major Urinary Protein = target: T2, Major Urinary Protein (Mus musculus, UniProt P11588); assay: S2axis order parameters of valine methyl groups from 600 MHz 13C R1/R2 relaxation of valine-enriched MUP and its complexes; conditions: for S^2axis: MUP-ligand complex, 600 MHz, 30° C., pH 7.0
T2 construct: made in house; host or cells: E. coli M15 cells with vector pqe30 MUP
T2 sequence (P11588 19-180): T1 sequence (P11588 19-180)
Procedure: Samples of [^13C^γ1,^γ2HD2]-U-^2H valine enriched MUP both alone and complexed with 2-methoxy-3-isopropylpyrazine and 2-methoxy-3-isobutylpyrazine were prepared from a single sample at pH 7.0 and a protein concentration of 1 mM. A further sample of methyl-^13C, ^2H enriched MUP was prepared at pH 7.0 and a protein concentration of 0.5 mM. Longitudinal (R1) and transverse (R2) ^13C relaxation rates were determined essentially as described by Ishima et al., J. Am. Chem. Soc. 121:11589-11590, 1999. All spectra were recorded at a proton frequency of 600 MHz and a probe temperature of 30° C. R1 rates were determined with relaxation delay times of 16, 64, 128, 240, 400, 720, 1120, 1600, 2240 and 2880 milliseconds. R2 rates were determined with relaxation delay times of 16, 32, 48, 64, 96, 160, 192, 240 and 288 milliseconds, and an effective field strength of 2 kHz. Relaxation data were fit to a single exponential decay function I=I0exp(−tR), where I0 is the initial resonance intensity, t is the relaxation delay time and R is the relaxation rate (R1 or R2). Relaxation data were fitted to the Lipari-Szabo model-free spectral density of the form: J(ω)=S^2τm/(1+ω^2τ^2m)+(1−S^2)τi/(1+ω^2τi^2), where τi^−1=τM^−1+τe^−1, τM is the overall molecular tumbling correlation time and τe is the effective internal correlation time. See Lipari and Szabo, J. Am. Chem. Soc. 104:4546-4559, 1982. This equation is valid for fast internal motions, τe<<τM, under which conditions the order parameter for methyl CH dipolar relaxation is given by S^2=Saxis^2[P2(cos θH]^2. Saxis^2 is the order parameter of the methyl rotation axis and θH is the angle made by the axis and the CH bond vector. A global rotational correlation time of […] was used for these calculations, according to the previously reported value. Zidek et al., Nature Str. Biol. 6:1118-1121, 1999. Although the valine residues were perdeuterated at non-methyl positions, the protein was otherwise protonated, and dipolar relaxation due to these “external” protons is not negligible for ^13C relaxation. Thus, by analogy with the work of Ishima et al. J. Am. Chem. Soc. 123:6164-6171, 2001, the contribution of these external protons to ^13C R2 values was estimated at 25% from the X-ray coordinates of MUP. Consequently, measured ^13C R^2 rates were multiplied by 0.75 to account for these external dipolar relaxation processes.

Mouse Urinary Protein = target: T3, Mouse Urinary Protein (Mus musculus, UniProt P11588); assay: 13C NMR relaxation (T1, T2) of valine 13CHD2-labeled MUP in absence and presence of ligand; conditions: for T1, Change / T2, Change: Protein vs Bound Protein; for T1, Bound Protein / T2, Bound Protein: 298 K;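 on T1, Bound Protein: unit milliseconds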;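 on T2, Bound Protein: unit milliseconds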
T3 construct: made in house; host or cells: E. coli M15 cells with vector pqe30 MUP
T3 sequence (P11588 19-180): T1 sequence (P11588 19-180)
Procedure: A 15 mg sample of L-valine-α-D-^12CD(^13CHD2)2 labeled MUP was dissolved in 650 μL phosphate buffered saline (10 mM potassium phosphate; 200 mM sodium chloride), to which was added 50 μL deuterium oxide. ^13C Relaxation rates (R2 and R1) of ^13CHD2 groups were determined using pulse sequences as described in Ishima et al., J. Am. Chem. Soc. 121:11589-11590 (1999). Spectral parameters were as follows: spectral width in the ^13C dimension, 900 Hz; spectral width in the ^1H dimension, 5200 Hz; number of real data points in the ^13C dimension, 128; number of real points in the ^1H dimension, 1408; number of transients per t1 increment, 8; probe temperature, 298 K. Prior to two-dimensional Fourier transformation, free induction decays were apodized with cosine-bell windowing functions according to known methods.
The NMR analysis was then repeated following addition of the small molecule ligand 1 μL of isobutyl pyrazine or 1 μL of isopropyl pyrazine to separate solutions of MUP. The data shown below in Tables I and II and in FIG. 8 were obtained, clearly showing the changes in T1 and T2 values obtained on addition of these small molecule ligands.

MUP [2] = target: T1, MUP; assay: 13C-1H HSQC spectra of valine-enriched MUP complexes; conditions: 13C-1H HSQC of complexes with valine-enriched MUP
[3] = valine methyl 59.HG1 (first line)
[4] = valine methyl 59.HG1 (second line)

Kd (MUP [1]): 560 nM
changes in Saxis^2 of the six valine residues in MUP upon binding (Major Urinary Protein): only minor changes
S^2axis (Major Urinary Protein; Val-12 C^γ1): 0.90
S^2axis (Major Urinary Protein; Val-12 C^γ2): 0.69
S^2axis (Major Urinary Protein; Val-47 C^γ1): 0.84
S^2axis (Major Urinary Protein; Val-47 C^γ2): 0.90
S^2axis (Major Urinary Protein; Val-53 C^γ1): 0.80
S^2axis (Major Urinary Protein; Val-53 C^γ2): 0.85
S^2axis (Major Urinary Protein; Val-59 C^γ1): 0.68
S^2axis (Major Urinary Protein; Val-59 C^γ2): 0.86
S^2axis (Major Urinary Protein; Val-70 C^γ1): 0.85
S^2axis (Major Urinary Protein; Val-70 C^γ2): 0.77
S^2axis (Major Urinary Protein; Val-82 C^γ1): 0.50
S^2axis (Major Urinary Protein; Val-82 C^γ2): 0.48
contribution of valine side-chains to the entropy of binding (Major Urinary Protein; from computations of Saxis^2 values, free protein and complexes): do not contribute significantly
T1, Change (Mouse Urinary Protein; 12.HG1): −8.387 milliseconds
T2, Change (Mouse Urinary Protein; 12.HG1): −8.329 milliseconds
T1, Change (Mouse Urinary Protein; 12.HG2): −40.959 milliseconds
T2, Change (Mouse Urinary Protein; 12.HG2): −9.198 milliseconds
T1, Change (Mouse Urinary Protein; 47.HG1): 2.421 milliseconds
T2, Change (Mouse Urinary Protein; 47.HG1): −13.342 milliseconds
T1, Change (Mouse Urinary Protein; 47.HG2): −76.984 milliseconds
T2, Change (Mouse Urinary Protein; 47.HG2): −4.561 milliseconds
T1, Change (Mouse Urinary Protein; 53.HG1): −50.272 milliseconds
T2, Change (Mouse Urinary Protein; 53.HG1): −14.174 milliseconds
T1, Change (Mouse Urinary Protein; 53.HG2): 8.962 milliseconds
T2, Change (Mouse Urinary Protein; 53.HG2): −7.866 milliseconds
T1, Change (Mouse Urinary Protein; 59.HG1 (first line)): −91.665 milliseconds
T2, Change (Mouse Urinary Protein; 59.HG1 (first line)): −16.574 milliseconds
T1, Change (Mouse Urinary Protein; 59.HG1 (second line)): −49.656 milliseconds
T2, Change (Mouse Urinary Protein; 59.HG1 (second line)): −6.181 milliseconds
T1, Change (Mouse Urinary Protein; 70.HG1): 209.318 milliseconds
T2, Change (Mouse Urinary Protein; 70.HG1): −41.741 milliseconds
T1, Change (Mouse Urinary Protein; 70.HG2): 86.431 milliseconds
T2, Change (Mouse Urinary Protein; 70.HG2): 11.930 milliseconds
T1, Change (Mouse Urinary Protein; 82.HG1): −10.201 milliseconds
T2, Change (Mouse Urinary Protein; 82.HG1): 10.857 milliseconds
T1, Change (Mouse Urinary Protein; 82.HG2): 0.991 milliseconds
T2, Change (Mouse Urinary Protein; 82.HG2): 19.924 milliseconds
contribution of valine side-chains to the entropy of binding (Mouse Urinary Protein; from relaxation data in the presence of ligand): do not contribute significantly
T1, Bound Protein (Mouse Urinary Protein; valine methyl 12.HG1): 1733.309 milliseconds
T2, Bound Protein (Mouse Urinary Protein; valine methyl 12.HG1): 161.437 milliseconds
T1, Bound Protein (Mouse Urinary Protein; valine methyl 12.HG2): 1509.370 milliseconds
T2, Bound Protein (Mouse Urinary Protein; valine methyl 12.HG2): 192.512 milliseconds
T1, Bound Protein (Mouse Urinary Protein; valine methyl 47.HG1): 1626.298 milliseconds
T2, Bound Protein (Mouse Urinary Protein; valine methyl 47.HG1): 168.574 milliseconds
T1, Bound Protein (Mouse Urinary Protein; valine methyl 47.HG2): 1067.605 milliseconds
T2, Bound Protein (Mouse Urinary Protein; valine methyl 47.HG2): 155.315 milliseconds
T1, Bound Protein (Mouse Urinary Protein; valine methyl 53.HG1): 2283.543 milliseconds
T2, Bound Protein (Mouse Urinary Protein; valine methyl 53.HG1): 177.873 milliseconds
T1, Bound Protein (Mouse Urinary Protein; valine methyl 53.HG2): 1355.764 milliseconds
T2, Bound Protein (Mouse Urinary Protein; valine methyl 53.HG2): 158.149 milliseconds
T1, Bound Protein (Mouse Urinary Protein; [3]): 1374.428 milliseconds
T2, Bound Protein (Mouse Urinary Protein; [3]): 195.222 milliseconds
T1, Bound Protein (Mouse Urinary Protein; [4]): 1572.793 milliseconds
T2, Bound Protein (Mouse Urinary Protein; [4]): 153.897 milliseconds
T1, Bound Protein (Mouse Urinary Protein; valine methyl 70.HG1): 1872.254 milliseconds
T2, Bound Protein (Mouse Urinary Protein; valine methyl 70.HG1): 162.943 milliseconds
T1, Bound Protein (Mouse Urinary Protein; valine methyl 70.HG2): 1077.097 milliseconds
T2, Bound Protein (Mouse Urinary Protein; valine methyl 70.HG2): 150.103 milliseconds
T1, Bound Protein (Mouse Urinary Protein; valine methyl 82.HG1): 925.102 milliseconds
T2, Bound Protein (Mouse Urinary Protein; valine methyl 82.HG1): 213.526 milliseconds
T1, Bound Protein (Mouse Urinary Protein; valine methyl 82.HG2): 668.810 milliseconds
T2, Bound Protein (Mouse Urinary Protein; valine methyl 82.HG2): 203.529 milliseconds
shift perturbations of Val 82 γ1 and γ2 correlations (MUP [2]): Significant shift perturbations
Structure (SMILES): COc1nccnc1C(C)C [2-methoxy-3-isopropylpyrazine]
